Experimental data from patent publication US20260200979A1, “PEPTIDE FOR CARTILAGE REGENERATION, AND USES THEREOF” (CAREGEN CO., LTD., priority 2022, published 2026).
Ends that are not written are not given here.

Test system: human-derived chondrocytes (C28/I2, human chondrocyte cell line)
Test: CCK-8 cytotoxicity assay
Type: cell-based
Conditions: C28/I2 cells, different concentrations, 3 days, 450 nm
Experimental: The cytotoxicity of Peptide-1 or Peptide-2 upon addition to human-derived chondrocytes (C28/I2, human chondrocyte cell line) was analyzed using a CCK-8 assay.
Specifically, human-derived chondrocytes were seeded in a 96-well plate at a density of 3×10^3 cells/well and cultured in DMEM medium (cat. 11995-065, Gibco) for 24 hours. […] Meanwhile, as a negative control group, an experimental group to which the peptide was not added was used.

Row | Substance | cytotoxicity (CCK-8 activity)
1 | KFLIK [Peptide-2, KFLIK] | did not exhibit toxicity
2 | PYYRI [Peptide-1, PYYRI] | did not exhibit toxicity
